{
  "source": "patent US9211338B2",
  "about": "“Composition and method for treating HPV” (Universite Libre de Bruxelles, priority 2011, dated 2015)",
  "origin": "cited, not measured here",
  "key": {"HPV-positive cells": {"tested_on": "HPV-positive cells", "conditions": "in vitro"}},
  "note": "Where two headings read alike, the source gives them in different places.",
  "data": [
    {"molecule": "Nc1ccn(C[C@@H](CO)OCP(=O)(O)O)c(=O)n1", "note": "[cidofovir]", "values": [
      {"measurement": "clinical outcome", "setting": "HPV; intravenous (systemic), disseminated papillomatosis", "value": "stabilization of disseminated papillomatosis"},
      {"measurement": "clinical outcome", "setting": "HPV; local intratumor injections, patients with papillomatous lesions", "value": "complete regression of the tumor"},
      {"measurement": "inhibition of cell proliferation", "setting": "HPV-positive cells", "value": "concentration- and time-dependent inhibition of cell proliferation"}
    ]}
  ]
}
